{"source": "patent US20140010903A1", "about": "“Curcuminoid composition with enhanced bioavailability and a process for its preparation” (Akay Flavours & Aromatics Pvt Ltd., priority 2012, published 2014)", "origin": "cited, not measured here"}
{"smiles": "O=C(/C=C/C=C/c1ccc2c(c1)OCO2)N1CCCCC1", "note": "[piperine]", "values": [{"measurement": "Toxicity in animal studies", "result": "toxic"}]}
